US7312360B2, “Substituted hydroxyethylamines” (Elan Pharmaceuticals, Inc., priority 2001, dated 2007)

Row | melting point | Structure (SMILES)
1 | 197 to 199 °C | CCCCOc1cccc(C[C@H](N)[C@H](O)CNCc2cccc(CC)c2)c1.Cl.Cl
2 | 85 to 90 °C | CCCCCCOc1cccc(C[C@H](NC(=O)c2coc(NS(C)(=O)=O)n2)[C@H](O)CNCc2cccc(CC)c2)c1 [Example 45, N-{(1S,2R)-3-[(3-ethylbenzyl)amino]-1-[3-(hexyloxy)benzyl]-2-hydroxypropyl}-2-[(methylsulfonyl)amino]-1,3-oxazole-4-carboxamide]
3 | 102 to 105 °C | CCCCCCOc1cccc(C[C@H](NC(C)=O)[C@H](O)CNCc2cccc(CC)c2)c1 [Example 93B, N-{(1S,2R)-3-[(3-ethylbenzyl)amino]-1-[3-(hexyloxy)benzyl]-2-hydroxypropyl}acetamide]

Further lines, the compound ahead of its results:

Row | Structure (SMILES) | melting point
4 | CCCCOc1cccc(C[C@H](NC(=O)c2coc(NS(C)(=O)=O)n2)[C@H](O)CNCc2cccc(CC)c2)c1 [Example 50a, N-{(1S,2R)-1-(3-butoxybenzyl)-3-[(3-ethylbenzyl)amino]-2-hydroxypropyl}-2-[(methylsulfonyl)amino]-1,3-oxazole-4-carboxamide] | 78 to 80 °C
5 | CCCCOc1cccc(C[C@H](NC(C)=O)[C@H](O)CNCc2cccc(CC)c2)c1 [Example 50b, N-{(1S,2R)-1-(3-butoxybenzyl)-3-[(3-ethylbenzyl)amino]-2-hydroxypropyl}acetamide] | 112 to 114 °C
6 | CCCCCCOc1cccc(C[C@H](NC(=O)c2cccc(-c3ncco3)c2)[C@H](O)CNCc2cccc(CC)c2)c1 [Example 93A, N-{(1S,2R)-3-[(3-ethylbenzyl)amino]-1-[3-(hexyloxy)benzyl]-2-hydroxypropyl}-3-(1,3-oxazol-2-yl)benzamide] | 117 to 120 °C
